Laboratory results from patent publication US12428456B2, “Peptide directed protein knockdown” (University of British Columbia, priority 2012, dated 2025).
Like-named read-outs stand apart in the source and are kept apart here.

Tests used:
[1] = target: T1, DAPK1 (Rattus norvegicus, UniProt F1LNN8); experiment: Knockdown of native DAPK1 in cultured cortical neurons, NMDA stimulation (immunoblot); assay type: cell-based; conditions: synthetic peptide 25 μM, prior to and during NMDA
T1 construct: decreased the level of endogenous DAPK1 in cultured cortical neurons following NMDA treatment; endogenous in cells; host or cells: primary rat cortical neurons (E18, 14-18 DIV)
Procedure: Cell culture, transfection and treatments. HEK293 cells and COS7 cells were cultured in DMEM (Sigma, D6429-24X500ML) supplemented with 10% Fetal Bovine Serum (Invitrogen, 12483020). Cells were grown to 80% confluence in 6-well plates before transiently transfected with Lipofectamine 2000 (Invitrogen, 11668019), as according to the manufacturer's protocols. Cells were transfected for either 24 or 48 hours at 37° C. before harvesting for biochemical analyses. For experiments involving TAT or His-TAT peptides, unless otherwise specified, peptides were added 1 hour prior to NMDA insult.
(§1) Primary culture of cortical neurons. Dissociated cultures of rat cortical neurons were prepared from Sprague Dawley rat embryos collected from euthanized mothers 18 days after fertilization as previously described^35. Briefly, hippocampi and cerebral cortices were extracted from embryos and incubated for 30 min in 0.25% trypsin-EDTA. Digested tissues were dissociated by trituration and plated on poly-D-lysine-coated (Sigma, P7280) plates. Plating medium consisted of Neurobasal Media (Invitrogen, 21103-049) supplemented with B27 (Invitrogen, 17504044), glutamic acid (Sigma, G8415) and GlutaMax (Invitrogen, 35050-061). After 2 days, 2/3 of the media was replaced with fresh Neurobasal feeding media consisting of Neurobasal Media, B27 and GlutaMax. Cultures were maintained at 37° C. in a humidified 5% CO2 atmosphere. Mature neurons (14-18 days in vitro (DIV)) were used for experiments.
(§2) Immunoblotting. Immunoblotting assays were carried out as previously described^36. Briefly, proteins were extracted from neurons using a lysis buffer composed of 150 mM NaCl, 50 mM Tris, pH 7.4, 0.1% SDS, 1% NP-40, 0.5% sodium deoxycholate, 1 mM EDTA, 1 mM Na3VO4, and proteinase inhibitor mixture (Thermo Fisher, PI78442). Samples were separated on 10% SDS-PAGE gels, transferred to polyvinylidene difluoride (PVDF) membrane, and immunoblotted with respective antibodies. Blots were enhanced with chemiluminescence detection reagent kit (Fisher, 32106) and visualized with Bio-Rad imager and Quantity One software. Signal intensities from each band was quantified with Bio-Rad Image Lab software, and the bands were analyzed relative to their controls from the same membrane and experiment.
Cellular fractionation. Cytoplasm/nuclei fractionation was performed on cultured cortical neurons (6.0*10^6 cells/100 mm dish). Briefly, cells were washed with ice cold PBS and rocked in lysis buffer for 30 min. Cells were then collected and centrifuged to obtain a rough cytoplasmic and nuclear fraction. Supernatant was collected and further centrifuged to obtain purified cytosolic fraction. The original pellet was washed and vortexed to obtain a nuclear lysis. Mitochondrial fractionation was performed as described in the Pierce Mitochondria Isolation Kit for Cultured Cells (Thermo Scientific, 89874) user guide. Purity was assessed by immunoblotting for the presence of LB1 (nucleus only), HSP90 (cytosol only) and VDAC1 (mitochondria only).

[2] = target: T1, DAPK1; experiment: DAPK1 knockdown in brain, rat MCAO focal ischemia model (immunoblot, immunohistochemistry); assay type: in vivo; conditions: 10 mg/kg i.v., ischemic vs contralateral side; listed as TATNR2B
Procedure: as §2
(§3) Middle cerebral arterial occlusion (MCAO). All animal experiments were performed according to protocols approved by the University of British Columbia Committee on Animal Care. Adult naïve male Sprague-Dawley rats (300-350 g, Charles River) were group housed (3-4 animals/cage) in 12 hr:12 hr light-dark cycles and had free access to rat pellet chow and water prior to surgery. Reversible MCAO with suture-insertion method was performed as described previously^37. Briefly, a nylon suture with a blunted tip was entered through the right external carotid artery of anesthetized rats and advanced to the right internal carotid artery until the right MCA was occluded. After 60 min of occlusion, the rat was reanesthetized to facilitate the removal of the occlusion. Body temperature was maintained at between 36.5 and 37.5° C. throughout the surgical procedure with a heating pad. Peptides (10 mg/kg) or vehicle control (saline; 1 ml/kg) was injected via the jugular vein. Rats were then sewn up and allowed to recover until tissue collection.
Immunohistochemistry. Rats were anesthetized and perfused with double-filtered saline and 4% paraformaldehyde (PFA) in PBS. Brains were collected, immersed in 4% PFA before subjected to cryoprotection by 30% sucrose/PBS. After the brains had sunk, they were flash frozen with dry ice before overnight freezing in −80° C. They were then sliced at […] with a cryostat, and stored in 0.1 μM PB (sodium phosphate dibasic and sodium phosphate monobasic). Prior to staining, slices were washed 3×10 min with 0.1 μM PB, permeablized and blocked in 0.1 μM PB with 1% BSA and 0.2% Triton X-100 for 30 min, and stained with anti-DAPK1 (1:100) at 4° C. for 3 days. They were then washed and stained with Alexa 488 (1:1000) at 4° C. overnight before washing and mounting.

[3] = tested on: rat middle cerebral artery occlusion focal ischemia model; experiment: Ischemic brain damage, rat MCAO focal ischemia model (H&E staining); assay type: in vivo; conditions: 10 mg/kg i.v., 60 min MCAO
Procedure: as §3
Hematoxylin & Eosin (H&E) staining. Slices were mounted and dried on glass slides prior staining. Slides were immersed in Hematoxylin solution (Sigma, MHS1-100ML) for 15 min away from light, followed by 5 min blueing under tap water. Slides were then counterstained with 0.5% Eosin Y (Sigma, E4009-5G) and dipped in ddH2O until the eosin stopped streaking. […]

[4] = tested on: cortical neurons; assay type: cell-based; conditions: H2O2 300 μM 30 min
Procedure: as §1, with “Mature neurons (14-18 days in vitro (DIV)) were used for experiments.” left out
Assessment of neuronal death. Cytotoxic damage of primary neuron cultures was assessed by measuring LDH released into culture media as previously described^38. […] Peptide toxicity was assessed by treating neurons with 25 μM synthetic peptide or 200 μM recombinant peptide for 24 hrs. […] The amount of LDH in the medium was determined using a LDH cytotoxicity detection kit (Sigma, TOX7) according to the manufacturer's instructions. The absorbance at 490 nm was determined using a microplate reader (μQuant, Bio-TEK instruments), which was adjusted by background reading deduction.

T1 sequence (F1LNN8 1-1430): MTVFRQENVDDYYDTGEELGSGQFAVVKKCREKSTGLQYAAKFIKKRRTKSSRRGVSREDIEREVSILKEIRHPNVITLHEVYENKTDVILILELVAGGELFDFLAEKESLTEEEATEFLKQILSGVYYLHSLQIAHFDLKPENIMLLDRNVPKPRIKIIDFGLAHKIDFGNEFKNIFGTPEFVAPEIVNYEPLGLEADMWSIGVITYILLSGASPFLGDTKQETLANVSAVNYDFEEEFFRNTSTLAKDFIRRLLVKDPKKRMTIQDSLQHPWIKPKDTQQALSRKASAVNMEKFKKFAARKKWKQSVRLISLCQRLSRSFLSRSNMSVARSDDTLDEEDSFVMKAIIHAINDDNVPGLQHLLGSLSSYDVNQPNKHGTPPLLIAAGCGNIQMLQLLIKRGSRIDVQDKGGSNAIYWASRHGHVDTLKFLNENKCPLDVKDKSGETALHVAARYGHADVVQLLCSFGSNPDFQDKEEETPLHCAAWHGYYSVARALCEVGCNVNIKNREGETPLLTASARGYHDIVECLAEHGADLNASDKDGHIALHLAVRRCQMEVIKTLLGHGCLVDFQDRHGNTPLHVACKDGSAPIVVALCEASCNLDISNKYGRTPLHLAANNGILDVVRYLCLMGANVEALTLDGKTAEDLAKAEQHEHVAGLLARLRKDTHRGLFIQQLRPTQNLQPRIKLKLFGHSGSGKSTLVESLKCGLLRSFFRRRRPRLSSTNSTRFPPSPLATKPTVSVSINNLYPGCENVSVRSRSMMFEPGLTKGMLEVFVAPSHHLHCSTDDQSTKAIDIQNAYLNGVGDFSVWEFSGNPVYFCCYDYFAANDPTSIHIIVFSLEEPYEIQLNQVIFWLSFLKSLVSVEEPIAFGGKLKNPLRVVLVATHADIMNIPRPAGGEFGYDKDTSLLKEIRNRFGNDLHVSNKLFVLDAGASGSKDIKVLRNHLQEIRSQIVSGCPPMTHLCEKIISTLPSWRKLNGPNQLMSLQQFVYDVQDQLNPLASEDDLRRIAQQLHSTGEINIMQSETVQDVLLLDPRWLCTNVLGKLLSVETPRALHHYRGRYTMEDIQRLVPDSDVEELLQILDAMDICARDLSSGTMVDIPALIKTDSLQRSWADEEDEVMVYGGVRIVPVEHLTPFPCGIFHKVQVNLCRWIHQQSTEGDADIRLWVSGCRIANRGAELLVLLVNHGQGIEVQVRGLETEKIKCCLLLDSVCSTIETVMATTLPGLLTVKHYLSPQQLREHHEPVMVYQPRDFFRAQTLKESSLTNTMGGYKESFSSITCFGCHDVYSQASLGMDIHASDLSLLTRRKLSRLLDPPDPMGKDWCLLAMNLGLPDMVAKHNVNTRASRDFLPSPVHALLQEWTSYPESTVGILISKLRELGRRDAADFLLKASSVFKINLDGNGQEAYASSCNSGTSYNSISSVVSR

In the case of “YGRKKRRQRRRKKNRNKLRRQHSY [TAT-NR2B, CTS-lacking control peptide, reference compound]”, the “effect on DAPK1 level after NMDA treatment” value [1] is reported as “did not affect DAPK1 levels”, the “effect on DAPK1 levels in brain tissues (immunoblot)” value [2] is reported as “no obvious change” and the “ischemic damage / infarct areas (H&E staining)” value [3] is reported as “partially decreased ischemic damage”.
For `N[C@H](CCCP(=O)(O)O)C(=O)O` [APV, (2R)-amino-5-phosphonopentanoic acid], the “neuronal death (LDH) normalized to naïve non-treated control (set as 1)” value ([4]; 50 μM, 12 hours after treatment) was 2.16±13.8.
catalase was tested, and the “neuronal death (LDH) normalized to naïve non-treated control (set as 1)” value ([4]; catalase added, 12 hours) was 1.17±1.76.
